ChEMBL document CHEMBL1795293, “Novel pentamidine derivatives: synthesis, anti-tumor properties and polynucleotide-binding activities” (Eur J Med Chem, 2011)
pIC50: −log10 of the molar value. Active and inactive are the calls of the source. The rule behind the calls is not given here.

Key:
[1] = test system: MCF7; assay: Cytotoxicity against human MCF7 cells after 72 hrs by MTT assay; assay type: functional, cell-based; settings: MCF7, 72 h
[2] = test system: SW-620; assay: Cytotoxicity against human SW620 cells after 72 hrs by MTT assay; assay type: functional, cell-based; settings: SW-620, 72 h
[3] = test system: MIA PaCa-2; assay: Cytotoxicity against human MIAPaCa2 cells after 72 hrs by MTT assay; assay type: functional, cell-based; settings: MIA PaCa-2, 72 h
[4] = test system: HeLa; assay: Cytotoxicity against human HeLa cells after 72 hrs by MTT assay; assay type: functional, cell-based
[5] = test system: HEp-2; assay: Cytotoxicity against human Hep2 cells after 72 hrs by MTT assay; assay type: functional, cell-based; settings: HEp-2, 72 h
[6] = test system: Nucleic Acid; assay: Binding affinity to Poly G-Poly C RNA at 0.7 compound to polynucleotide ratio by circular dichroism spectroscopy; assay type: nucleic-acid assay
[7] = test system: Nucleic Acid; assay: Binding affinity to Poly G-Poly C RNA at 0.5 compound to polynucleotide ratio by circular dichroism spectroscopy; assay type: nucleic-acid assay
[8] = test system: Nucleic Acid; assay: Binding affinity to Poly G-Poly C RNA at 0.2-0.3 compound to polynucleotide ratio by circular dichroism spectroscopy; assay type: nucleic-acid assay
[9] = test system: Nucleic Acid; assay: Binding affinity to Poly G-Poly C RNA at 0.1 compound to polynucleotide ratio by circular dichroism spectroscopy; assay type: nucleic-acid assay
[10] = test system: Nucleic Acid; assay: Binding affinity to Poly G-Poly C RNA at < 0.3 compound to polynucleotide ratio by circular dichroism spectroscopy; assay type: nucleic-acid assay
[11] = test system: Nucleic Acid; assay: Binding affinity to Poly A-Poly U RNA measured at 326 nm wavelength at 0.7 compound to polynucleotide ratio by circular dichroism spectroscopy; assay type: nucleic-acid assay
[12] = test system: Nucleic Acid; assay: Binding affinity to Poly A-Poly U RNA at 0.5 compound to polynucleotide ratio by circular dichroism spectroscopy; assay type: nucleic-acid assay
[13] = test system: Nucleic Acid; assay: Binding affinity to Poly A-Poly U RNA measured at 290 nm wavelength at 0.1 compound to polynucleotide ratio by circular dichroism spectroscopy; assay type: nucleic-acid assay
[14] = test system: Nucleic Acid; assay: Binding affinity to Poly A-Poly U RNA measured at 300 to 330 nm wavelength at < 0.3 compound to polynucleotide ratio by circular dichroism spectroscopy; assay type: nucleic-acid assay
[15] = test system: Nucleic Acid; assay: Binding affinity to double strand Poly dA-Poly dT DNA measured at 300 to 330 nm wavelength at > 0.5 compound to polynucleotide ratio by circular dichroism spectroscopy; assay type: nucleic-acid assay
[16] = test system: Nucleic Acid; assay: Binding affinity to double strand calf thymus DNA measured at 300 to 330 nm wavelength at > 0.5 compound to polynucleotide ratio by circular dichroism spectroscopy; assay type: nucleic-acid assay; settings: Bos taurus
[17] = test system: Nucleic Acid; assay: Binding affinity to double strand Poly dA-Poly dT DNA measured at 300 to 330 nm wavelength at 0.3 compound to polynucleotide ratio by circular dichroism spectroscopy; assay type: nucleic-acid assay
[18] = test system: Nucleic Acid; assay: Binding affinity to double strand calf thymus DNA measured at 300 to 330 nm wavelength at 0.3 compound to polynucleotide ratio by circular dichroism spectroscopy; assay type: nucleic-acid assay; settings: Bos taurus
[19] = test system: Nucleic Acid; assay: Binding affinity to double strand Poly dA-Poly dT DNA measured at 300 to 330 nm wavelength at 0.1 compound to polynucleotide ratio by circular dichroism spectroscopy; assay type: nucleic-acid assay
[20] = test system: Nucleic Acid; assay: Binding affinity to double strand calf thymus DNA measured at 300 to 330 nm wavelength at 0.1 compound to polynucleotide ratio by circular dichroism spectroscopy; assay type: nucleic-acid assay; settings: Bos taurus
[21] = target: Nucleic Acid; assay: Binding affinity to Poly dA-Poly dT DNA assessed as ratio of ethidium bromide /compound at which 50% of ethidium bromide fluorescence is quenched by displacement assay; assay type: nucleic-acid assay
[22] = target: Nucleic Acid; assay: Binding affinity to Poly G-Poly C RNA assessed as ratio of ethidium bromide /compound at which 50% of ethidium bromide fluorescence is quenched by displacement assay; assay type: nucleic-acid assay
[23] = target: Nucleic Acid; assay: Binding affinity to Poly A-Poly U RNA assessed as ratio of ethidium bromide /compound at which 50% of ethidium bromide fluorescence is quenched by displacement assay; assay type: nucleic-acid assay
[24] = test system: Nucleic Acid; assay: Binding affinity to calf thymus DNA assessed as ratio of ethidium bromide /compound at which 50% of ethidium bromide fluorescence is quenched by displacement assay; assay type: nucleic-acid assay, Bos taurus
[25] = test system: Nucleic Acid; assay: Binding affinity to calf thymus DNA by UV-VIS spectral study; assay type: nucleic-acid assay; settings: Bos taurus
[26] = test system: Nucleic Acid; assay: Binding affinity to Poly dA-Poly dT DNA assessed as change in melting temperature at 0.5 compound to polynucleotide ratio by UV-VIS spectral study; assay type: nucleic-acid assay
[27] = test system: Nucleic Acid; assay: Binding affinity to Poly dA-Poly dT DNA assessed as change in melting temperature at 0.3 compound to polynucleotide ratio by UV-VIS spectral study; assay type: nucleic-acid assay
[28] = test system: Nucleic Acid; assay: Binding affinity to Poly A-Poly U RNA assessed as change in melting temperature at 0.5 compound to polynucleotide ratio by UV-VIS spectral study; assay type: nucleic-acid assay
[29] = test system: Nucleic Acid; assay: Binding affinity to Poly A-Poly U RNA assessed as change in melting temperature at 0.3 compound to polynucleotide ratio by UV-VIS spectral study; assay type: nucleic-acid assay
[30] = test system: Nucleic Acid; assay: Binding affinity to calf thymus DNA assessed as change in melting temperature at 0.5 compound to polynucleotide ratio by UV-VIS spectral study; assay type: nucleic-acid assay; settings: Bos taurus
[31] = test system: Nucleic Acid; assay: Binding affinity to calf thymus DNA assessed as change in melting temperature at 0.3 ratio compound/polynucleotide by UV-VIS spectral study; assay type: nucleic-acid assay; settings: Bos taurus
[32] = test system: NCI-H460; assay: Cytotoxicity against human H460 cells after 72 hrs by MTT assay; assay type: functional, cell-based; settings: NCI-H460, 72 h
[33] = test system: HCT-116; assay: Cytotoxicity against human HCT116 cells after 72 hrs by MTT assay; assay type: functional, cell-based; settings: HCT-116, 72 h
[34] = test system: MOLT-4; assay: Cytotoxicity against human MOLT4 cells after 72 hrs by MTT assay; assay type: functional, cell-based; settings: MOLT-4, 72 h
[35] = test system: Nucleic Acid; assay: Binding affinity to Poly A-Poly U RNA measured at 299 nm wavelength at < 0.3 compound to polynucleotide ratio by circular dichroism spectroscopy; assay type: nucleic-acid assay
[36] = test system: Nucleic Acid; assay: Stabilization of double helix calf thymus DNA by spectroscopy; assay type: nucleic-acid assay; settings: Bos taurus
[37] = test system: Nucleic Acid; assay: Binding affinity to Poly A-Poly U RNA measured at 303 nm wavelength at < 0.3 compound to polynucleotide ratio by circular dichroism spectroscopy; assay type: nucleic-acid assay

Row | Structure (SMILES) | Activity [14] | IC50 [21] [molar ratio] | IC50 [22] [molar ratio] | IC50 [23] [molar ratio] | IC50 [24] [molar ratio] | ΔTm [26] [°C] | ΔTm [27] [°C] | ΔTm [28] [°C] | ΔTm [29] [°C] | ΔTm [30] [°C] | ΔTm [31] [°C] | pIC50 [1] | pIC50 [2] | pIC50 [3] | pIC50 [4] | pIC50 [5] | pIC50 [32] | pIC50 [33] | pIC50 [34] | also measured
1 | N#Cc1ccc(NC(=O)c2ccco2)cc1 | – | – | – | – | – | – | – | – | – | – | – | 4.49 | < 4.00 | < 4.00 | 4.33 | < 4.00 | – | – | – | –
2 | N#Cc1ccc(NC(=O)c2ccc(C(=O)Nc3ccc(C#N)cc3)o2)cc1 | – | – | – | – | – | – | – | – | – | – | – | < 4.00 | < 4.00 | < 4.00 | < 4.00 | < 4.00 | – | – | – | –
3 | Cl.Cl.N=C(N)c1ccc(C(=O)Nc2cccc(NC(=O)c3ccc(C(=N)N)cc3)n2)cc1 | Active | 1.7 | 0.07 | 0.5 | 0.19 | 30.9 | 29.3 | 18.7 | 1 | 15 | 13.5 | 4.92 | < 4.00 | 4.89 | 4.72 | 4.68 | 4.77 | 4.17 | < 4.00 | Activity [35]: inactive
4 | CC(C)NC(=N)c1ccc(NC(=O)c2cccc(C(=O)Nc3ccc(C(=N)NC(C)C)cc3)n2)cc1.Cl.Cl | Active | 1.37 | 0.1 | 0.17 | 0.15 | 25.5 | 24.1 | 3.7 | 3.1 | 10.3 | 8.5 | 4.49 | < 4.00 | < 4.00 | 4.28 | 4.52 | < 4.00 | < 4.00 | < 4.00 | –
5 | CC(C)NC(=N)c1ccc(NC(=O)c2ccco2)cc1 | – | – | – | – | – | – | – | – | – | – | – | < 4.00 | < 4.00 | < 4.00 | 4.22 | < 4.00 | – | – | – | Activity [36]: inactive
6 | N=C(N)c1ccc(NC(=O)c2ccco2)cc1 | – | – | – | – | – | – | – | – | – | – | – | 4.48 | < 4.00 | < 4.00 | < 4.00 | < 4.00 | – | – | – | Activity [36]: inactive
7 | Cl.Cl.N=C(N)c1ccc(NC(=O)c2cccc(C(=O)Nc3ccc(C(=N)N)cc3)n2)cc1 | Active | 1.6 | 0.25 | 0.47 | 0.3 | – | 20.4 | – | 1 | – | 6.7 | < 4.00 | < 4.00 | 4.89 | 4.74 | 4.33 | 4.72 | < 4.00 | < 4.00 | Activity [37]: Active

Now from value to compound, other results behind:

Row | Activity [14] | IC50 [21] [molar ratio] | IC50 [22] [molar ratio] | IC50 [23] [molar ratio] | IC50 [24] [molar ratio] | ΔTm [26] [°C] | ΔTm [27] [°C] | ΔTm [28] [°C] | ΔTm [29] [°C] | ΔTm [30] [°C] | ΔTm [31] [°C] | Structure (SMILES) | pIC50 [1] | pIC50 [2] | pIC50 [3] | pIC50 [4] | pIC50 [5] | pIC50 [32] | pIC50 [33] | pIC50 [34] | also measured
8 | Active | 2.23 | 0.2 | 0.03 | 0.36 | 31.7 | 29.5 | 20.1 | 4.5 | 6.6 | 5.6 | CC(C)NC(=N)c1ccc(NC(=O)c2ccc(C(=O)Nc3ccc(C(=N)NC(C)C)cc3)o2)cc1.Cl.Cl | 5.40 | 5.40 | 4.10 | 4.30 | 5.30 | – | – | – | Activity [6]: Active; Activity [7]: Active; Activity [8]: Active; Activity [9]: Active; Activity [10]: Active; Activity [11]: Active; Activity [12]: Active; Activity [13]: Active; Activity [15]: Active; Activity [16]: Active; Activity [17]: inactive; Activity [18]: inactive; Activity [19]: Active; Activity [20]: Active; Ks [25]: 6.3 ×10⁴ /M
9 | Active | 2 | 0.07 | 0.07 | 0.13 | 32.2 | 30.5 | 5.7 | 3.7 | 14.5 | 13.1 | CC(C)NC(=N)c1ccc(C(=O)Nc2cccc(NC(=O)c3ccc(C(=N)NC(C)C)cc3)n2)cc1.Cl.Cl | 4.62 | < 4.00 | < 4.00 | 4.25 | 4.42 | < 4.00 | < 4.00 | < 4.00 | Activity [35]: Active
10 | – | 2.1 | 0.36 | 1 | 0.8 | – | 30.2 | – | 1.6 | – | 7.5 | Cl.Cl.N=C(N)c1ccc(NC(=O)c2ccc(C(=O)Nc3ccc(C(=N)N)cc3)o2)cc1 | 5.30 | < 4.00 | 4.28 | < 4.00 | 4.96 | – | – | – | –
